Reference: patent US20260198497A1, “A BENZENE RING-SUBSTITUTED PYRIMIDINECARBOXYLIC ACID COMPOUND, PREPARATION METHOD THEREFOR, HERBICIDAL COMPOSITION AND APPLICATION THEREOF” (QINGDAO KINGAGROOT CHEMICAL COMPOUND CO., LTD., priority 2023, published 2026)

Assays:
Euphorbia helioscopia = experiment: Activity assay of compositions, post-emergence spray of stems and leaves; type: in vivo; settings: A 3 g a.i./ha, fresh weight inhibition, 21 days after treatment, listed as A
Description: (§1) The required active ingredient B was purchased from a reagent company or a technical material manufacturer or synthesized by a conventional method. The active ingredient A was Compound 74 in Table 1. The technical materials were all dissolved with acetone solvents and diluted with aqueous solution of 0.1% Tween® 80 emulsifier, which should be used immediately after dilution.
(§2) Weeds were cultivated by a pot culture method. […] Weed seeds with plump and uniform grains were selected, soaked in lukewarm water at 25° C. for 6 hours, and accelerated to germinate in a 28° C. biochemical incubator (in darkness). The weed seeds that had just germinated were evenly placed on the surface of the soil and then covered with 0.5-1 cm soil according to the sizes of seeds.
(§3) The weeds were cultured in a controllable sunlight greenhouse at 20-30° C., in natural light, and with relative humidity of 57%-72%. The soil was loam with an organic matter content of 1.63%, a pH value of 7.1, alkali-hydrolyzable nitrogen of 84.3 mg/kg, rapidly available phosphorus of 38.5 mg/kg, and rapidly available potassium of 82.1 mg/kg.
(§4) Each treatment was repeated 4 times for 3 pots. Each pot was seeded with 20 weed seeds.
(§5) The drugs were applied once in total in the experiment. When at the stage of 1.5-2 leaves, the weeds were thinned out to maintain 10 strains per pot. Thirty strains were kept in each treatment and then continued to be cultured until the Erigeron canadensis reached 10 cm tall and other weeds in their 3-4 leaf stage for further treatment.
(§6) The well-cultured test materials were evenly placed on a 0.5 m^2 platform and foliage-sprayed by the 3WP-2000-type walking spray tower at a dosage of […] and a spray pressure of 0.3 MPa. After all the drug solution was sprayed, the air valve was closed. And 30 seconds later, the door of the spray tower was opened, and the nutritional bowl was taken out. Next, the air valve was opened, and the spray tube was cleaned by spraying 50 ml of water. The test materials were transferred to and routinely cultured in a greenhouse after the treatment.
(§7) A method for investigating absolute numbers was employed. The whole seedlings of the survival weeds were cut along the soil surface with a blade, and the fresh weight of the weeds was weighed by an analytical balance. For dead weeds, the fresh weight thereof was considered zero.
(§8) The investigation was performed 21 days after the treatment for once in total.
(§9) The theoretical fresh weight inhibition rate of a mixed combination of each treatment was calculated by the Gowing method (E0=X+Y−X*Y/100). Then compared with the measured inhibition rate (E), the type of the combined action of the combination of the two on weeds was evaluated, which was a synergistic effect when E−E0>10; an antagonistic effect when E−E0<−10%; an additional effect when −10≤E−E0≤100. An optimal ratio was determined according to factors such as the actual control effects, characteristics of herbicides, balance of the formulation, etc. In the formula, X represents the fresh weight inhibition rate of the active ingredient A in a dosage of P; Y represents the fresh weight inhibition rate of the active ingredient B in a dosage of Q. The statistical results are shown in Table 5 below.

Lindernia procumbens = experiment: as above; type: in vivo; settings: A 3 g a.i./ha, fresh weight inhibition, 21 days after treatment
Description: as §1, §2, §3, §4, §5, §6, §7, §8, §9

Radish = experiment: Post-emergence test, crop safety; settings: in vivo, 3 weeks
Description: (§10) The criteria for activity levels of plant damage (i.e., growth control rate) are as follows: • Level 9: completely dead; • Level 8: growth control rate is greater than or equal to 90% and less than 100%; • Level 7: growth control rate is greater than or equal to 80% and less than 90%; • Level 6: growth control rate is greater than or equal to 70% and less than 80%; • Level 5: growth control rate is greater than or equal to 50% and less than 70%; • Level 4: growth control rate is greater than or equal to 30% and less than 50%; • Level 3: growth control rate is greater than or equal to 20% and less than 30%; • Level 2: growth control rate is greater than or equal to 10% and less than 20%; • Level 1: growth control rate is less than 10%; • Level 0: no effect.
(§11) The above growth control rates are fresh weight control rates.
(§12) Monocotyledonous and dicotyledonous weed seeds (Descurainia sophia, Capsella bursa-pastoris, Abutilon theophrasti, Galium spurium, Stellaria media, Lithospermum arvense, Rorippa indica, Alopecurus aequalis, Alopecurus japonicus, Eleusine indica, Beckmannia syzigachne, Sclerochloa dura, Erigeron canadensis, Phleum paniculatum, Veronica, Bromus japonicus, Aegilops tauschii, Phalaris arundinacea, Amaranthus retroflexus, Chenopodium, Commelina communis, Cichorium endivia, Convolvulus arvensis, Cirsium arvense, Solanum nigrum, Acalypha australis, Digitaria sanguinalis, Echinochloa crusgalli, Setaria viridis, Setaria pumila, Leptochloa chinensis, Monochoria vaginalis, Sagittaria trifolia, Schoenoplectiella juncoides, Cyperus rotundus, Cyperus iria, Cyperus difformis, Fimbristylis, Portulaca oleracea, Xanthium sibiricum, Ipomoea nil, Eschenbachia japonica, etc.) and major crop seeds (wheat, maize, paddy rice, soybean, cotton, oilseed rape, millet, sorghum, potato, sesame, castor plant, Chinese cabbage, radish, etc.) were placed in plastic pots filled with soil and then covered with 0.5-2 cm of soil to allow them to grow in a favorable greenhouse environment. Two weeks after sowing, the test plants were treated at the stage of 2-3 leaves. The test compounds of the present invention were individually dissolved with acetone, then added with Tween® 80, with 1.5 L/ha of methyl oleate emulsifiable concentrate as a synergist, diluted into solution of a certain concentration using a certain amount of water, and sprayed to plants using a spray tower. After drug application, the experimental results on weeds were collected after 3 weeks of cultivation in a greenhouse. The compounds were applied at 120, 60, 30, and 15 g a.i./ha in triplicate, and the results were averaged.

Wheat = experiment: Post-emergence test, crop safety; settings: in vivo, 3 weeks
Description: as §10, §11, §12

Oilseed rape = experiment: Post-emergence test, crop safety; settings: in vivo, 3 weeks
Description: as §10, §11, §12

Paddy rice = experiment: Post-emergence test, crop safety; settings: in vivo, 3 weeks
Description: as §10, §11, §12

Maize = experiment: Post-emergence test, crop safety; settings: in vivo, 3 weeks
Description: as §10, §11, §12

Chinese cabbage = experiment: Post-emergence test, crop safety; settings: in vivo, 3 weeks
Description: as §10, §11, §12

Veronica [1] = experiment: Activity assay of compositions, post-emergence spray of stems and leaves; type: in vivo; settings: A 3 g a.i./ha, fresh weight inhibition, 21 days after treatment
Description: as §1, with “The active ingredient A was Compound 74 in Table 1.” left out
as §2, §4, §5, §6, §7, §8
as §9, with “Then compared with the measured inhibition rate (E), the type of the combined action of the combination of the two on weeds was evaluated, which was a synergistic effect when E−E0>10; an antagonistic effect when E−E0<−10%; an additional effect when −10≤E−E0≤100.” left out

Veronica [2] = experiment: Post-emergence test on weeds; type: in vivo; set-up: key: 0 = no effect, 9 = completely dead (levels by growth control rate); settings: 30 g a.i./ha, 3 weeks after application
Procedure, shortened: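 Sow in pots, cover 0.5-2 cm soil, greenhouse; spray at 2-3 leaf (2 wk); acetone/Tween 80 formulation + methyl oleate 1.5 L/ha; 120/60/30/15 g a.i./ha, n=3; score 0-9 on fresh-wt control at 3 wk.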

Monochoria vaginalis = experiment: Activity assay of compositions, post-emergence spray of stems and leaves; type: in vivo; settings: A 3 g a.i./ha, fresh weight inhibition, 21 days after treatment
Description: as §1, with “The active ingredient A was Compound 74 in Table 1.” left out
as §2, §3, §4, §5, §6, §7, §8, §9

## COCCOC(=O)c1nc(-c2ccc(C(F)(F)F)c(OC)c2F)nc(N)c1OC [Compound 74]
Euphorbia helioscopia
  Control effect of A applied alone in a corresponding dose (%): 58.0%
Lindernia procumbens
  Control effect of A applied alone in a corresponding dose (%): 37.7%
Radish
  activity level of plant damage (growth control rate), Radish: 0
Wheat
  activity level of plant damage (growth control rate), Wheat: 0
Oilseed rape
  activity level of plant damage (growth control rate), Oilseed rape: 0
Paddy rice
  activity level of plant damage (growth control rate), Paddy rice: 0
Maize
  activity level of plant damage (growth control rate), Maize: 0
Chinese cabbage
  activity level of plant damage (growth control rate), Chinese cabbage: 0
Veronica [1]
  Control effect of A applied alone in a corresponding dose (%): 62.3%
Veronica [2]
  activity level of plant damage (growth control rate), Veronica: 9
Monochoria vaginalis
  Control effect of A applied alone in a corresponding dose (%): 66.4%
